What all share (type): functional
Assay [1] relates to MCF7. Kind of assay: Cytotoxicity against human MCF7 cells assessed as growth inhibition after 3 days by MTT assay. To be noted: MCF7, 72 h.
Assay [2] concerns PC-3. Kind of assay: Cytotoxicity against human PC3 cells assessed as growth inhibition after 3 days by MTT assay. The conditions noted are these: PC-3, 72 h.
Assay [3] deals with SK-N-SH. The experiment in a line: Cytotoxicity against human SK-N-SH cells assessed as growth inhibition after 3 days by MTT assay. To be noted: 72 h. In general terms: Tetrazolium dyes change colour on reduction, which living cells bring about.
Assay [4] has as its system HeLa. Kind of assay: Cytotoxicity against human HeLa cells assessed as growth inhibition after 3 days by MTT assay. To be noted: 72 h.

`C[C@]12CCC(=O)N[C@@H]1CC[C@@H]1[C@@H]2CC[C@]2(C)O[C@H](n3cnc4c(Cl)nc(Cl)nc43)CC[C@@H]12`: the 50% growth inhibitory concentration (GI50) (usually the concentration that inhibits growth by half) turned out to be 34.2 µM in assay [1], 11.2 µM in assay [2], 34.2 µM in assay [3] and 7.57 µM in assay [4].

In the case of `C[C@]12CCC(=O)N[C@@H]1CC[C@@H]1[C@@H]2CC[C@]2(C)O[C@H](n3cnc4c(NCc5ccccc5)ncnc43)CC[C@@H]12`, the GI50 came out at 136 µM in assay [1], 20.6 µM in assay [2], 133 µM in assay [3] and 129 µM in assay [4].

As to `C[C@]12CCC(=O)N[C@@H]1CC[C@@H]1[C@@H]2CC[C@]2(C)O[C@H](n3cnc4c(Cl)ncnc43)CC[C@@H]12`, the GI50 in assay [1] was 20.9 µM; in assay [2], 3.25 µM; in assay [3] it was 103 µM; in assay [4], 17.7 µM.

`CC(=O)O[C@H]1C(=O)[C@@]2(C)[C@H]([C@H](OC(=O)c3ccccc3)[C@]3(O)C[C@H](OC(=O)[C@H](O)[C@@H](NC(=O)c4ccccc4)c4ccccc4)C(C)=C1C3(C)C)[C@]1(OC(C)=O)CO[C@@H]1C[C@@H]2O` [PACLITAXEL]: the 50% growth inhibitory concentration (GI50) turned out to be 1.07 µM in assay [1], 1.46 µM in assay [2], 2.19 µM in assay [3] and 2.82 µM in assay [4].

Consider `C[C@]12CCC(=O)N[C@@H]1CC[C@@H]1[C@@H]2CC[C@]2(C)O[C@H](n3cnc4c(Cl)nc(F)nc43)CC[C@@H]12`, for which the GI50 in assay [1] came out at 16.7 µM; in assay [2], 3.76 µM; in assay [3], 10.7 µM; in assay [4], 13.3 µM.

The values are drawn from ChEMBL document CHEMBL1833849, “Novel 4-azasteroidal N-glycoside analogues bearing sugar-like D ring: synthesis and anticancer activities” (2011).
